# Laboratory results published in PubChem BioAssay AID2423 (Broad Institute, 2010).
# Records with an inconclusive call do not appear. Active and inactive are the calls of the source. No rule for the calls is given here.
# Tested on: C. albicans CaCi-8 + fluconazole, Alamar Blue growth, 48 h
# Test: resistant C. albicans growth inhibition with fluconazole, dose response, CaCi-8 strain, Alamar Blue fluorescence (AID 2423)
row,Compound,EC50
1,O=C(NCc1ccc(F)cc1)c1ccc(CS(=O)(=O)Cc2ccccc2F)o1,> 15 µM (inactive)
2,CCCCCCCCC(=O)NNC(=O)c1c(O)c2ccccc2n(CC)c1=O,1.91 µM
3,O=C(/C=C/c1ccco1)Nc1cccc(-c2nc3ccccc3[nH]2)c1,1.25 µM
4,CCC(=O)N1CCN(c2ccc(Cl)cc2NC(=O)c2ccc3c(c2)OCCO3)CC1,0.811 µM
5,Cc1ccc2nc(-c3ccccc3Cl)cc(C(=O)Nc3cc(C)on3)c2c1,0.505 µM
6,Cc1ccsc1/C=N/NS(=O)(=O)c1ccc([N+](=O)[O-])cc1,7.37 µM
7,O=C(c1cc(-c2ccccc2)n[nH]1)N1CCc2c([nH]c3ccccc23)C1c1ccccn1 (configuration not stated),0.692 µM
8,Nc1nonc1-n1nnc(C(=O)N/N=C/c2cc(Br)ccc2O)c1CSC1=NCCS1,0.359 µM
9,O=C(N/N=C/c1c(O)ccc2ccccc12)c1cccc(C(F)(F)F)c1,0.242 µM
10,COc1ccc(C(=O)N/N=C(\Cc2ncc[nH]2)c2ccccc2)cc1,> 16 µM (inactive)
11,CCN(CC)c1nc(-c2ccccn2)nc(-c2ccccc2)c1C#N,4.19 µM
12,COc1ccc(NC(=O)/C(C#N)=C\c2ccc(N3CCOCC3)o2)cc1,3.76 µM
13,Cc1ccc(S(=O)(=O)c2ncccc2[N+](=O)[O-])cc1,1.09 µM
14,Oc1c(C(c2ccc(Cl)cc2)N2CCCC2)cc(Cl)c2cccnc12 (configuration not stated),0.686 µM
15,CCc1nnc(NC(=O)CSc2ncc(-c3ccccc3)n2C)s1,1.64 µM
16,O=C(/C=C1\NC2(CCCC2)Cc2ccccc21)C(=O)N/N=C/c1ccccc1O,0.601 µM
17,O=C(Oc1c(Cl)cc(Cl)c2cccnc12)N1CCOCC1,> 15 µM (inactive)
18,CCCCC(=O)NC(=S)Nc1cccc(NC(=O)c2ccco2)c1,1.23 µM
19,CC(C)C(=O)NC(c1cccs1)c1cc([N+](=O)[O-])c2cccnc2c1O (configuration not stated),0.778 µM
20,O=Nc1c(O)n(Cc2ccc(Cl)c(Cl)c2)c2ccccc12,5.9 µM
21,CS/C(=C\[N+](=O)[O-])Nc1ccc(Cl)cc1,4.02 µM
22,CCCc1ccc(Oc2cn[nH]c2-c2ccc(O)cc2O)cc1,8.05 µM
23,O=C(c1ccc(Cl)cc1)N1CCN(c2ccnc3cc(Cl)ccc23)CC1,0.863 µM

row,Compound,EC50
1,Cc1ccc(Cn2nnc3c(=O)[nH]c(C4CCN(S(=O)(=O)c5ccc(C)cc5)CC4)nc32)cc1,> 15 µM (inactive)
2,CCCOc1cccc(C(=O)Nc2cccnc2)c1,2.21 µM
3,CCN(CC)c1ccc(/C=C/C(=O)c2cccnc2)cc1,< 0.12 µM
4,Cc1cc(C)c(S(=O)(=O)Nc2cccc(-n3cnnn3)c2)c(C)c1,13 µM
5,CCOC(=O)Cc1csc(NC(=O)CSc2nc3sc(C(=O)O)c(C)c3c(=O)[nH]2)n1,> 16 µM (inactive)
6,O=C1C2CCN(CC2)C1Cc1ccc(OCCOc2ccccc2)cc1 (configuration not stated),1.68 µM
7,CCn1c(SCC(=O)c2ccc(O)c(O)c2)nnc1-c1ccccc1OC,> 16 µM (inactive)
8,O=[N+]([O-])c1cccnc1S(=O)(=O)c1ccccc1,0.865 µM
9,COc1ccc(/C=N\NC(=O)c2cc(O)c(O)c(O)c2)cc1CN1CCN(c2ccc(F)cc2)CC1,1.58 µM
10,Brc1cccc(CSc2nnc(-c3ccncc3)o2)c1,> 15 µM (inactive)
11,Cc1c2ccccc2nc2c(F)c(NCCO)c(F)c(F)c12,> 16 µM (inactive)
12,CC(=O)NC(c1cccs1)c1cc([N+](=O)[O-])c2cccnc2c1O (configuration not stated),1.08 µM
13,O=C(NCc1ccc(Cl)cc1)c1n[nH]c([N+](=O)[O-])c1Cl,> 16 µM (inactive)
14,CCn1c(O)c(N=NC(=O)c2cccs2)c2ccccc21,1.32 µM
15,CCN(CC)S(=O)(=O)c1ccc(N/N=C(\C)c2ccc(OC)cc2O)nc1,> 16 µM (inactive)
16,CCCOCc1ccc(O)c2ncccc12,2.17 µM
17,COc1ccc(O)c(/C=N/NC(=O)c2ccc(CSc3nc(C)cc(C)n3)cc2)c1,1.76 µM
18,CCc1cc(C(=O)NC2CCCc3c2cnn3-c2cccc(C)c2C)n(C)n1 (configuration not stated),0.232 µM
19,COc1ccc(C2Nc3ccccc3C(=O)N2O)cc1OC (configuration not stated),> 15 µM (inactive)
20,O=C(O)CCCCCn1c(O)c(C=C2N=c3ccccc3=N2)sc1=S,1.64 µM
21,CC(=O)c1cnc2cc(-c3cccc(Br)c3)nn2c1C,> 15 µM (inactive)
22,CC(C)C(Sc1nc(-c2ccccc2)cc(-c2ccccc2)c1C#N)C(=O)O (configuration not stated),3.77 µM
23,Cc1c(O)cc2n(c1=O)-c1ccc(Cl)cc1C2(C)C,0.332 µM

row,Compound,EC50
1,O=C(N/N=C/c1sc2ccccc2c1O)c1cccc2ccccc12,1.58 µM
2,Cc1ccc(NC(=O)CNC(=O)c2ccc(Oc3ccccc3)cc2)nc1,0.44 µM
3,CSCCC1NC2(C(=O)Nc3c(C)cc(Cl)cc32)[C@@H]2C(=O)N(C3CCCC3)C(=O)[C@H]12 (some centres not stated),10.1 µM
4,Cc1cccc(C(=O)NNC(=S)NC(=O)c2cccs2)c1,1.46 µM
5,COc1ccc(-c2nnc(NC(=O)c3ccc(S(=O)(=O)N4CCCc5ccccc54)cc3)o2)cc1,0.193 µM
6,CCN(CC)c1ccc(/C=N/Nc2nc3ccccc3[nH]2)c(O)c1,0.621 µM
7,O=C(N/N=C\c1cc(Cl)ccc1O)c1ccc(S(=O)(=O)N2CCCCC2)cc1,0.926 µM
8,O=C(N/N=C/c1ccc(Cl)cc1Cl)Nc1ccccc1,> 16 µM (inactive)
9,Cc1ccc(-n2nc(C)c3c(C)cc(=O)[nH]c32)cc1,2.08 µM
10,COc1ccc(NC(=O)C(=O)NNC(=O)c2ccc(Cl)cc2Cl)cc1,0.888 µM
11,CCc1ccc(-c2csc3ncn(Cc4ccc(C(=O)O)cc4)c(=O)c23)cc1,0.954 µM
12,O=c1c(Cl)c(NCCCO)cnn1-c1nc2ccccc2[nH]1,> 15 µM (inactive)
13,S=c1nc[nH]c2c1cnn2Cc1ccccc1,2.33 µM
14,O=C(Nc1nc(=O)c2ccccc2s1)c1ccc(Cl)cc1,> 15 µM (inactive)
15,Cc1cc(N/N=C/c2c(O)ccc3ccccc23)nc(-c2ccccc2O)n1,0.133 µM
16,CC(C)=CCc1c2c(c(O)c3c(=O)c4c(oc13)-c1cc(O)c(O)cc1OC4C=C(C)C)C=CC(C)(C)O2 (configuration not stated),13 µM
17,O=C(NC(=S)Nn1cnc2c(cnn2-c2ccccc2)c1=O)c1ccc(Cl)cc1,4.15 µM
18,CC(Nc1ncnc2ccccc12)c1ccccc1 (configuration not stated),0.606 µM
19,O=C1/C(=C/c2cccnc2)CCc2c1[nH]c1ccccc21,1.24 µM
20,Cc1cccc(NC(=O)CSC(N)=O)c1C,> 15 µM (inactive)
21,Cc1cc2ccccn2c1C(C[N+](=O)[O-])c1c(F)cccc1Cl (configuration not stated),0.382 µM
22,O=Nc1c(-c2cccc([N+](=O)[O-])c2)nc2ncccn12,0.828 µM
23,Cc1nc2ccc(NC(=O)COc3ccccc3)cc2s1,5.37 µM

row,Compound,EC50
1,CC(=O)Nc1cccc(NC(=O)C2CCCN2C(=O)Nc2ccc(Cl)cc2)c1 (configuration not stated),> 16 µM (inactive)
2,CCn1c(=O)c(C(=O)NCc2cccnc2)c(O)c2ccccc21,9.52 µM
3,CCn1c(=O)c(C(=O)Nc2ncccc2C)c(O)c2ccccc21,3.35 µM
4,CCN(CC)S(=O)(=O)c1cc(OC)ccc1N=Nc1ccc(O)c2ncccc12,1.56 µM
5,O=C(ONC1=NCCCCC1)c1cccc([N+](=O)[O-])c1,0.969 µM
6,Cc1cc(Br)ccc1OCC(=O)NNC(=O)C(=O)Nc1ccccc1,0.718 µM
7,COc1cc(OC)cc(-c2nnc(Nc3nc4c(F)cccc4s3)o2)c1,> 15 µM (inactive)
8,Oc1ccc(/C=N/NP(=S)(c2ccccc2)c2ccccc2)c(O)c1O,8.83 µM
9,CCNC(=S)NNC(=O)c1cc(-c2ccccc2C)nc2ccccc12,1.41 µM
10,COc1ccc(C)cc1N=Nc1ccc(O)c2ncccc12,0.656 µM
11,CC(C)=CCc1cc2c(=O)c3c(O)c4c(cc3oc2c(O)c1O)OC(C)C4(C)C (configuration not stated),6.36 µM
12,CC(C(=O)c1ccccc1)[n+]1cccc(Br)c1 (configuration not stated),> 15 µM (inactive)
13,O=S(=O)(Cc1ccccc1)N1CCc2ccccc21,10.9 µM
14,CCn1c(C)nc2cc(C(=O)N/N=C/c3cccc(OC)c3O)ccc21,> 16 µM (inactive)
15,O=C(COc1ccc2c(c1)CCC2)N1CCN(c2cccc(C(F)(F)F)c2)CC1,> 16 µM (inactive)
16,O=C(CCS(=O)(=O)c1ccccc1)Nc1ncc([N+](=O)[O-])s1,> 15 µM (inactive)
17,CCn1cc(/C=C/c2cc[n+](C)cc2)c2ccccc21,9.3 µM
18,COC(=O)c1c(C)n(-c2ccccc2)c2ccc(O)cc12,3.16 µM
19,Oc1c(C(c2ccccn2)N2CCOCC2)ccc2cccnc12 (configuration not stated),4.86 µM
20,CCn1c(C)nc2cc(C(=O)N/N=C/c3ccc(O)c(O)c3O)ccc21,0.989 µM
21,Cc1ccc(C(=O)c2coc3c2C(=O)C(=O)c2ccccc2-3)cc1,0.146 µM
22,O=C(NC1CCCCC1)C(c1ccc(Cl)cc1)N(C(=O)c1cnccn1)c1ccc2c(c1)OCO2 (configuration not stated),9.72 µM
23,O=C(COc1ccc(F)cc1)Nc1nc(-c2ccccn2)cs1,2.23 µM

row,Compound,EC50
1,Cc1ccccc1Nc1ncccc1C(=O)N1CCOCC1,> 16 µM (inactive)
2,COc1ccc(C(=O)On2c(-c3ccc(Br)cc3)nc3ccccc3c2=O)cc1,1.11 µM
3,CCOc1cc(/C=C2\SC(=S)N(NS(=O)(=O)c3ccccc3)C2=O)ccc1O,2.02 µM
4,N#C/C(C(N)=O)=c1/ccc2c(c1)N1C3=C(CCCC3)CC3CCCCC31N=2 (configuration not stated),3.12 µM
5,Cc1ccc(S(=O)(=O)Nc2ccc(O)c3ncccc23)cc1,3.31 µM
6,O=C(c1ccco1)N1CCN(c2ncnc3c(-c4ccccc4)nsc23)CC1,1.26 µM
7,N/C(=N\OC(=O)N1c2ccccc2Sc2ccccc21)c1ccccc1,0.193 µM
8,Oc1c(Br)cc(Br)cc1Oc1ccc(Br)cc1Br,1.76 µM
9,O=S(=O)(O)c1cccc2c(N=Nc3ccc(O)c4ncccc34)cccc12,> 16 µM (inactive)
10,CCC(=O)NC(c1cccs1)c1ccc2cccnc2c1O (configuration not stated),1.51 µM
11,Cc1nn(-c2ccccc2)c(N)c1N=Nc1ccc(Cl)cc1,7.76 µM
12,C=CCn1c(=N)n(CC(=O)c2cccc([N+](=O)[O-])c2)c2ccccc21,> 16 µM (inactive)
13,CSc1cnc2c(N)nc(N(C)C)nc2n1,12.4 µM
14,O=C1N/C(=N\N=C\c2cccnc2)SC1Cc1ccc(SC(F)F)cc1 (configuration not stated),3.24 µM
15,CN(C)C(=O)c1cn(-c2ccccc2)nc1-c1cccs1,> 16 µM (inactive)
16,Oc1cccc(C(Nc2nccs2)c2ccc3cccnc3c2O)c1 (configuration not stated),1.39 µM
17,C=C(C)c1cccc(C(C)(C)NC(=O)Nc2ccc(C(N)=O)cc2)c1,> 15 µM (inactive)
18,CC(C)(C)c1ccc(OCCCC(=O)NNC(=O)c2ccccc2O)cc1,2.56 µM
19,Cc1cc(OC(=O)c2ccco2)c2c3c(c(=O)oc2c1)CCCC3,0.953 µM
20,CNC(=S)N/N=C/c1ccc(-c2ccc(Cl)c([N+](=O)[O-])c2)o1,1.94 µM
